We go through 2 compounds from US20170119760A1 (AB SCIENCE, priority 2015, published 2017).

One data set concerns C57BL/6 mice. The data set is described as follows: Mortality after MPTP intoxication. It is filed as in vivo. Conditions: 24 hours after treatment by the MPTP. The source says: Brain samples were collected after mice anesthesia and sacrifice.
The subject of data set [1] is tyrosine hydroxylase expression. Put plainly: MPTP mouse model: tyrosine hydroxylase ELISA assay of total brain protein extract. The following applies: for Mean expression of tyrosine hydroxylase: ELISA, control 0.275. Background: In an ELISA, binding on a coated surface is turned into a signal by an enzyme label.
Description: The microliter plate wells were coated overnight at 4° C. with 5 μg of total brain protein extract. All unbound sites were blocked with a blocking buffer 10% FCS in PBS 1 hour at room temperature. Then, the anti-tyrosine hydroxylase rabbit polyclonal antibody, diluted 1:1000 was added for 2 hours at room temperature.
A further data set deals with monoamine oxidase. The data set is described as follows: MPTP mouse model: monoamine oxidase fluorometric assay of total brain protein extract. The following applies: for Monoamine oxidase fluorometric assay: total brain protein extract, control = 100.
The test system of data set [2] is tyrosine hydroxylase expression. Put plainly: MPTP mouse model: tyrosine hydroxylase immunohistochemistry on coronal brain sections. The data set is classed as in vivo, C57BL/6 mice. Conditions: MPTP + masitinib 2×5 mg/kg; 5 μm-thick coronal sections.
Description: The 5 μM-thick coronal sections were deparaffinized and hydrated, Endogenous peroxydase were inhibited with a dual endogenous enzyme block solution (Cat #S2003, DakoCytonation). Non specific protein binding was blocked with 1% BSA in PBS, pH=7,4. […] Peroxidase staining was obtained using the AbCys Histogreen substrate kit (Cat #E109, AbCys) and counterstained with a Neutral Red solution. After dehydration the sections were cover-slipped with Eukitt®.
Data set [3] deals with human cord blood mast cells. The following applies: cited from earlier work.

In the case of `CN1CC=C(c2ccccc2)CC1` [MPTP, 1-methyl-4-phenyl-1,2,3,6-tetrahydropyridine, reference compound], the mortality result with C57BL/6 mice is “No mortality”. The “Mean expression of tyrosine hydroxylase” value in data set [1] (MPTP alone (4 × 20 mg/kg), solvent treated) was determined as 0.175. Also, the “Monoamine oxidase fluorometric assay” value in the data set on monoamine oxidase (MPTP alone) is listed as 108.
On to `Cc1ccc(NC(=O)c2ccc(CN3CCN(C)CC3)cc2)cc1Nc1nc(-c2cccnc2)cs1` [Masitinib, 4-(4-methylpiperazin-1-ylmethyl)-N-[4-methyl-3-(4-pyridin-3ylthiazol-2-ylamino)phenyl]benzamide], for which the “attenuation of tyrosine hydroxylase destruction by immunohistochemistry” value in data set [2] is “reproducible”. The “FccRI-mediated degranulation of human cord blood mast cells” value in data set [3] is given as “inhibition”. Besides, the “decrease of tyrosine hydroxylase expression in response to MPTP treatment” value in data set [1] (MPTP + masitinib 2×5 mg/kg cohort) is reported as “significantly diminished decrease”. In addition, the “Mean expression of tyrosine hydroxylase” value in data set [1] (MPTP + masitinib 2 × 5 mg/kg per os, day -7 to day 7) is listed as 0.215; in data set [1] (masitinib alone 2 × 30 mg/kg per os, no MPTP) it was 0.225. The “basal expression of tyrosine hydroxylase compared with control” value in data set [1] (masitinib alone, no MPTP) is given as “did not modify significantly”. In addition, in the data set with monoamine oxidase (MPTP + masitinib 2 × 5 mg/kg), the “Monoamine oxidase fluorometric assay” value turned out to be 115. Moreover, in the data set with monoamine oxidase (MPTP in combination with masitinib), the “activity of monoamine oxidase with respect to the control group” value is “maintained”.
